# From patent US20210395327A1, “Growth Hormone-Releasing Hormone Antagonists and Uses Thereof” (United States Government As Represented By The Department …, priority 2019, published 2021)
# Non-standard residues stand in square brackets, D forms with d. Residues, ends and D or L forms follow the SMILES beside them. *: point of attachment. Phenylacetyl(2,3,4,5,6-F5) = O=C(Cc1c(F)c(F)c(F)c(F)c1F)*; Phe(F5) = N[C@@H](Cc1c(F)c(F)c(F)c(F)c1F)C(=O)O; Phe(4-Cl) = N[C@@H](Cc1ccc(Cl)cc1)C(=O)O; hArg = N=C(N)NCCCC[C@H](N)C(=O)O; 12Ado = NCCCCCCCCCCCC(=O)O; Nle = CCCC[C@H](N)C(=O)O; Orn = NCCC[C@H](N)C(=O)O; Abu = CC[C@H](N)C(=O)O
# Experiments:
# [1] = system: lung cancer HCC827 xenograft; experiment: Xenograft tumor growth in nude mice, HCC827; format: in vivo; details: Table 4B, Lung Ca HCC827, 7 weeks, 5 μg/day s.c.; for % Inhibition: vs control
# Method: (§1) The peptides' activity was compared with GHRH antagonist MIA-602. All statistical analyzses were performed from comparing GHRA antagonists to non-treated tumor (control).
# (§2) Peptides and chemicals. GHRH antagonists MIA-602 and AVR-GHRH antagonists (see Table 2 above) were synthesized by solid phase methods and purified by HPLC. The peptides were dissolved in DMSO and further diluted in 10% 1,2-propanediol. The final concentration of peptides was 50 µg/ml in 10% 1,2-propanediol containing 0.1% of DMSO.
# (§3) Cell culture. Human cancer cell lines including pancreatic (PANC-1 and CFPAC-1), lung (HCC827 and H460), stomach (NCI-N87), prostate (PC3), brest (MX-1 and HCC-1806), colorectal (HT-29), and ovarian (SK-OV-3 and OVCAR-3) were obtained from the American Type Culture Collection (ATCC) and cultured at 37° C. in a humidified 95% air/5% CO2 atmosphere in the medium recommended by ATCC.
# (§4) Xenograft models of human cancers in nude mice. Female athymic (NCr nu/nu) nude mice, 5- to 6-weeks-old, obtained from the Envigo labs (Tampa, Fla.), were housed in laminar airflow cabinets under pathogen-free conditions with a 12-h light/12-h dark schedule, and were fed autoclaved standard chow and water. To generate mice with xenografted tumors, tumor xenografts were initiated by subcutaneous (s.c.) injection of 107 human cancer cells into female nude mice. After about 4 weeks the resulting tumors were dissected and collected after removing necrosis tissues. The tumors were then cut into particles with size of 3 mm3 and transplanted s.c. by trocar needle into experimental animals. When tumors grew to the size of 50-60 mm3 (by volume), mice were randomized into groups and treated daily for 4-8 weeks by subcutaneous administration of 5 μg of GHRH antagonists MIA-602 or AVR-compounds (2-10 μg as indicated), or vehicle solutions (0.1% DMSO in 10% 1,2-propanediol) respectively. Tumor sizes were measured weekly.
# (§5) Statistical analysis. One-way ANOVA followed by Bonferroni comparison were performed. Data are expressed as Mean±SEM. To determine statistical significance between animal groups, two-tailed Student's t-test was conducted. Differences were considered significant when p<0.05.
# (§6) Results. […] FIG. 1A-N represents in vivo inhibition of tumor growth during the treatment with GHRH antagonist MIA-602 and selected AVR antagonists in nude mice xenografted with various human tumors including pancreatic cancer PANC-1 (FIG. 1A) and CFPAC-1 (FIG. 1I); lung cancer HCC827 (FIGS. 1B, C) and H460 (FIG. 1H); stomach cancer N87 (FIGS. 1D-F); colon cancer HT-29 (FIG. 1G); breast cancer MX-1 and HCC-1806 (FIGS. 1J, K); ovarian cancer SK-OV-3 and OVACAR-3 (FIGS. 1 L, M) and prostate cancer PC3 (FIG. 1N). See also Table 5.
# [2] = system: stomach cancer N87 xenograft; experiment: Xenograft tumor growth in nude mice, N87; format: in vivo; details: for % Inhibition: vs control
# Method: as §1, §2, §3
# as §4, with “mice were randomized into groups and treated daily for 4-8 weeks by subcutaneous administration” left out
# as §5, §6
# [3] = Table 4E, Stomach Ca N87, 4 weeks, 2 μg/day s.c.
# [4] = Table 4E, Stomach Ca N87, 4 weeks, 5 μg/day s.c.
# [5] = Table 4D, Stomach Ca N87, 10 weeks, 2 μg/day s.c.
# [6] = Table 4F, Stomach Ca N87, 4 weeks, 2 μg/day s.c.
SMILES,Tumor Growth % [1],% Inhibition [1],"Tumor Growth % [2, 3]","% Inhibition [2, 3]","Tumor Growth % [2, 4]","% Inhibition [2, 4]","Tumor Size (mm^3) [2, 5]","% Inhibition [2, 5]","Tumor Growth % [2, 6]","% Inhibition [2, 6]"
"CCCC[C@H](NC(=O)[C@@H](NC(=O)[C@H](CC(=O)O)NC(=O)[C@H](CCC(N)=O)NC(=O)[C@H](CC(C)C)NC(=O)[C@H](CC(C)C)NC(=O)[C@H](CCCN)NC(=O)[C@H](Cc1c[nH]cn1)NC(=O)[C@H](C)NC(=O)[C@H](CO)NC(=O)[C@H](CC(C)C)NC(=O)[C@H](CCC(N)=O)NC(=O)[C@H](CC)NC(=O)[C@H](CC(C)C)NC(=O)[C@@H](NC(=O)[C@H](CCCN)NC(=O)[C@H](Cc1c[nH]cn1)NC(=O)[C@H](Cc1ccc(OC)cc1)NC(=O)[C@H](CCCCNC(=N)N)NC(=O)[C@H](C)NC(=O)[C@@H](NC(=O)[C@H](Cc1c(F)c(F)c(F)c(F)c1F)NC(=O)[C@@H](NC(=O)[C@H](C)NC(=O)[C@H](CC(=O)O)NC(=O)[C@@H](CCCNC(=N)N)NC(=O)[C@H](Cc1ccc(O)cc1)NC(=O)CCCCCCCCCCCNC(=O)Cc1c(F)c(F)c(F)c(F)c1F)[C@@H](C)CC)[C@@H](C)O)C(C)C)[C@@H](C)CC)C(=O)N[C@H](CCCNC(=N)N)C(=O)N[C@@H](CCCCNC(=N)N)C(=O)NCCCCCCCCCCCC(N)=O [AVR-553, 5FPhAC-Ada-Tyr-DArg-Asp-Ala-Ile-5FPhe-Thr-Ala-Har-Tyr(Me)-His-Orn-Val-Leu-Abu-Gln-Leu-Ser-Ala-His-Orn-Leu-Leu-Gln-Asp-Ile-Nle-DArg-Har-Ada-NH2] ({Phenylacetyl(2,3,4,5,6-F5)-12Ado}-Y[dR]DAI[Phe(F5)]TA[hArg]Y(Me)H[Orn]VL[Abu]QLSAH[Orn]LLQDI[Nle][dR][hArg][12Ado]-NH2)",1132.0%,13.7%,532.7%,40.3%,283.3%,68.3%,,,,
"CCCC[C@H](NC(=O)[C@@H](NC(=O)[C@H](CC(=O)O)NC(=O)[C@H](CCC(N)=O)NC(=O)[C@H](CC(C)C)NC(=O)[C@H](CC(C)C)NC(=O)[C@H](CCCCN)NC(=O)[C@H](CCCNC(=N)N)NC(=O)[C@H](C)NC(=O)[C@H](CO)NC(=O)[C@H](CC(C)C)NC(=O)[C@H](CCC(N)=O)NC(=O)[C@H](CC)NC(=O)[C@H](CC(C)C)NC(=O)[C@@H](NC(=O)[C@H](CCCCN)NC(=O)[C@H](CCCNC(=N)N)NC(=O)[C@H](Cc1ccc(OC)cc1)NC(=O)[C@H](CCCCNC(=N)N)NC(=O)[C@H](C)NC(=O)[C@@H](NC(=O)[C@H](Cc1c(F)c(F)c(F)c(F)c1F)NC(=O)[C@@H](NC(=O)[C@H](C)NC(=O)[C@H](CC(=O)O)NC(=O)[C@@H](CCCNC(=N)N)NC(=O)[C@H](Cc1ccc(O)cc1)NC(=O)CCCCCCCCCCCNC(=O)Cc1c(F)c(F)c(F)c(F)c1F)[C@@H](C)CC)[C@@H](C)O)C(C)C)[C@@H](C)CC)C(=O)N[C@H](CCCNC(=N)N)C(=O)N[C@@H](CCCCNC(=N)N)C(=O)NC [AVR-235] ({Phenylacetyl(2,3,4,5,6-F5)-12Ado}-Y[dR]DAI[Phe(F5)]TA[hArg]Y(Me)RKVL[Abu]QLSARKLLQDI[Nle][dR][hArg]-NHMe)",771.0%,41.2%,,,,,558.60 mm^3,54.4%,312.80%,64.9%
"CCCC[C@H](NC(=O)[C@@H](NC(=O)[C@H](CC(=O)O)NC(=O)[C@H](CCC(N)=O)NC(=O)[C@H](CC(C)C)NC(=O)[C@H](CC(C)C)NC(=O)[C@H](CCCCN)NC(=O)[C@H](CCCNC(=N)N)NC(=O)[C@H](C)NC(=O)[C@H](CO)NC(=O)[C@H](CC(C)C)NC(=O)[C@H](CCC(N)=O)NC(=O)[C@H](CC)NC(=O)[C@H](CC(C)C)NC(=O)[C@@H](NC(=O)[C@H](CCCCN)NC(=O)[C@H](CCCNC(=N)N)NC(=O)[C@H](Cc1ccc(OC)cc1)NC(=O)[C@H](CCCCNC(=N)N)NC(=O)[C@H](CC(N)=O)NC(=O)[C@@H](NC(=O)[C@H](Cc1ccc(Cl)cc1)NC(=O)[C@@H](NC(=O)[C@H](C)NC(=O)[C@H](CC(=O)O)NC(=O)[C@@H](CCCNC(=N)N)NC(=O)[C@H](Cc1ccc(O)cc1)NC(=O)CCCCCCCCCCCNC(=O)Cc1c(F)c(F)c(F)c(F)c1F)[C@@H](C)CC)[C@@H](C)O)C(C)C)[C@@H](C)CC)C(=O)N[C@H](CCCNC(=N)N)C(=O)N[C@@H](CCCCNC(=N)N)C(=O)NCCCCCCCCCCCC(N)=O [AVR-333, 5FPhAC-Ada-Tyr-DArg-Asp-Ala-Ile-Cpa-Thr-Asn-Har-Tyr(Me)-Arg-Lys-Val-Leu-Abu-Gln-Leu-Ser-Ala-Arg-Lys-Leu-Leu-Gln-Asp-Ile-Nle-DArg-Har-Ada-NH2] ({Phenylacetyl(2,3,4,5,6-F5)-12Ado}-Y[dR]DAI[Phe(4-Cl)]TN[hArg]Y(Me)RKVL[Abu]QLSARKLLQDI[Nle][dR][hArg][12Ado]-NH2)",407.5%,68.9%,,,,,454.00 mm^3,62.9%,,
"CCCC[C@H](NC(=O)[C@@H](NC(=O)[C@H](CC(=O)O)NC(=O)[C@H](CCC(N)=O)NC(=O)[C@H](CC(C)C)NC(=O)[C@H](CC(C)C)NC(=O)[C@H](CCCN)NC(=O)[C@H](Cc1c[nH]cn1)NC(=O)[C@H](C)NC(=O)[C@H](CO)NC(=O)[C@H](CC(C)C)NC(=O)[C@H](CCC(N)=O)NC(=O)[C@H](CC)NC(=O)[C@H](CC(C)C)NC(=O)[C@@H](NC(=O)[C@H](CCCN)NC(=O)[C@H](Cc1c[nH]cn1)NC(=O)[C@H](Cc1c(F)c(F)c(F)c(F)c1F)NC(=O)[C@H](CCCCNC(=N)N)NC(=O)[C@H](C)NC(=O)[C@@H](NC(=O)[C@H](Cc1ccc(Cl)cc1)NC(=O)[C@@H](NC(=O)[C@H](C)NC(=O)[C@H](CC(=O)O)NC(=O)[C@@H](CCCNC(=N)N)NC(=O)[C@H](Cc1ccc(O)cc1)NC(=O)CCCCCCCCCCCNC(=O)Cc1c(F)c(F)c(F)c(F)c1F)[C@@H](C)CC)[C@@H](C)O)C(C)C)[C@@H](C)CC)C(=O)N[C@H](CCCNC(=N)N)C(=O)N[C@@H](CCCCNC(=N)N)C(=O)NCCCCCCCCCCCC(=O)NC [AVR-543, 5FPhAC-Ada-Tyr-DArg-Asp-Ala-Ile-Cpa-Thr-Ala-Har-5FPhe-His-Orn-Val-Leu-Abu-Gln-Leu-Ser-Ala-His-Orn-Leu-Leu-Gln-Asp-Ile-Nle-DArg-Har-Ada-NHCH3] ({Phenylacetyl(2,3,4,5,6-F5)-12Ado}-Y[dR]DAI[Phe(4-Cl)]TA[hArg][Phe(F5)]H[Orn]VL[Abu]QLSAH[Orn]LLQDI[Nle][dR][hArg][12Ado]-NHMe)",806.0%,38.6%,406.8%,48.4%,313.90%,64.8%,,,,
